Target: T1, renin (Homo sapiens, UniProt P00797)
T1 construct: This test measures the formation of angiotensin I in human plasma; from tissue; host or cells: human plasma
T1 sequence (P00797 67-406): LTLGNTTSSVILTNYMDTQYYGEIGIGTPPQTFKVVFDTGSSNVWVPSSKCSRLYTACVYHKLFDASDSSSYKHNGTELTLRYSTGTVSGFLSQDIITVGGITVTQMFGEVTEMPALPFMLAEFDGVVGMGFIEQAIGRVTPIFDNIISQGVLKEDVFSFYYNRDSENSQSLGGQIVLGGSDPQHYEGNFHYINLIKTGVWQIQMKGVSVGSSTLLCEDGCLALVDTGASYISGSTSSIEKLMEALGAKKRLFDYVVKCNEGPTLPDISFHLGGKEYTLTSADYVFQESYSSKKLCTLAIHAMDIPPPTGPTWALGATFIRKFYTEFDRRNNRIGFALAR
Assay: in vitro test of Nussberger et al.: formation of angiotensin I in human plasma, determined by radioimmunoassay
Type: biochemical
Conditions: concentration of inhibitor which reduces the formation of angiotensin I in human plasma by 50%
Protocol: The effect of renin inhibitors is detected inter alia experimentally by means of in vitro tests where the reduction in the formation of angiotensin I is measured in various systems (human plasma, purified human renin together with synthetic or natural renin substrate). The following in vitro test of Nussberger et al. (1987) J. Cardiovascular Pharmacol., Vol. 9, pp. 39-44, is used inter alia. This test measures the formation of angiotensin I in human plasma. The amount of angiotensin I formed is determined in a subsequent radioimmunoassay. The effect of inhibitors on the formation of angiotensin I is tested in this system by adding various concentrations of these substances. The IC50 is defined as the concentration of the particular inhibitor which reduces the formation of angiotensin I by 50%. The compounds of the present invention show inhibitory effects in the in vitro systems at minimal concentrations of about 10^−6 to about 10^−10 mol/l.

SMILES	IC50 [nM]
COCCCO[C@]1(c2ccc(COC[C@@H](C)COC)cc2)CCNC[C@@H]1OCc1ccc2c(c1)N(CCCOC)CCO2 [Example 10, 6-[(3S,4S)-4-[4-((S)-3-Methoxy-2-methyl-propoxymethyl)-phenyl]-4-(3-methoxy-propoxy)-piperidin-3-yloxymethyl]-4-(3-methoxy-propyl)-3,4-dihydro-2H-benzo[1,4]oxazine]	3
COCCCN1CCOc2ccc(CO[C@H]3CNCC[C@]3(OCC#N)c3ccc(COC[C@@H](C)COC)cc3)cc21 [Example 12, {(3S,4S)-4-[4-((S)-3-Methoxy-2-methyl-propoxymethyl)-phenyl]-3-[4-(3-methoxy-propyl)-3,4-dihydro-2H-benzo[1,4]oxazin-6-ylmethoxy]-piperidin-4-yloxy}-acetonitrile]	7.5
COCCCN1CCOc2ccc(CO[C@H]3CNCC[C@]3(OCC3CCCC3)c3ccc(COCCOC)cc3)cc21 [Example 5, 6-{(3S,4S)-4-Cyclopentylmethoxy-4-[4-(2-methoxy-ethoxymethyl)-phenyl]-piperidin-3-yloxymethyl}-4-(3-methoxy-propyl)-3,4-dihydro-2H-benzo[1,4]oxazine]	92.5

Results, then the compound that gave them:

IC50 [nM]	SMILES
10.4	COCCCN1CCOc2ccc(CO[C@H]3CNCC[C@]3(OC[C@H](O)COC)c3ccc(COCCOC)cc3)cc21 [Example 2, (R)-1-Methoxy-3-{(3S,4S)-4-[4-(2-methoxy-ethoxymethyl)-phenyl]-3-[4-(3-methoxy-propyl)-3,4-dihydro-2H-benzo[1,4]oxazin-6-ylmethoxy]-piperidin-4-yloxy}-propan-2-ol]
9.5	COCCCN1CCOc2ccc(CO[C@H]3CNCC[C@]3(OC[C@@H](O)COC)c3ccc(COCCOC)cc3)cc21 [Example 3, (S)-1-Methoxy-3-{(3S,4S)-4-[4-(2-methoxy-ethoxymethyl)-phenyl]-3-[4-(3-methoxy-propyl)-3,4-dihydro-2H-benzo[1,4]oxazin-6-ylmethoxy]-piperidin-4-yloxy}-propan-2-ol]
26.5	COCCCN1CCOc2ccc(CO[C@H]3CNCC[C@]3(OCCOC)c3ccc(COCCOC)cc3)cc21 [Example 1, 6-{(3S,4S)-4-(2-Methoxy-ethoxy)-4-[4-(2-methoxy-ethoxymethyl)-phenyl]-piperidine-3-yloxymethyl}-4-(3-methoxy-propyl)-3,4-dihydro-2H-benzo[1,4]oxazine]
